Experimental data reported in patent publication US6482947B1, “Substituted (hetero) aryl compounds, process for their preparation, agents containing them and their use as safeners” (priority 1992, dated 2002).

How the values were obtained:
Oryza sativa (rice) = experiment: Safener action on rice (flooded pots), damage assessment; assay type: in vivo; conditions: herbicide 300 g of a.i./ha, no safener; 3-leaf stage, assessment after 3 weeks
Experimental: Rice was sown in plastic pots and raised in a greenhouse under optimum growth conditions. After emergence, the pots were filled with water to 2 cm from the top, and this flooding level was maintained throughout the experiment. At the 3- to 4-leaf stage, the plants were then treated with the herbicides and the compounds of the formula I. 3 weeks after treatment, the plants were assessed for damage of any type caused by the herbicides, in particular the extent of lasting growth inhibition and thinning being considered.

Hordeum vulgare (barley) = experiment: Safener action on barley, post-emergence greenhouse test, visual damage assessment; conditions: no safener
Experimental: (§1) Seeds of wheat and barley were placed in sandy loam soil in plastic pots, raised to the 3- to 4-leaf stage in a greenhouse and then treated successively with the compounds according to the invention and the herbicides using the post-emergence method. The herbicides and the compounds of the formula I were applied in the form of aqueous suspensions or emulsions at an application rate of 300 l/ha (converted). 3-4 weeks after the treatment, the plants were assessed visually for damage of any type caused by the herbicides applied, in particular the extent of lasting growth inhibition being taken into account. The assessment was made in percentages compared with untreated controls.
(§2) Test conditions: Application at the 4-leaf stage; assessment after 4 weeks; 4 replications
Test conditions: Application at the 3-leaf stage;
assessment after 2-3 weeks; 4 replications

[1] = test system: Triticum durum (hard wheat); experiment: Safener action on hard wheat, post-emergence greenhouse test, visual damage assessment; assay type: in vivo; conditions: no safener, 4-leaf stage, assessment after 4 weeks
Experimental: as §1, §2

[2] = test system: Triticum aestivum (wheat); experiment: Safener action on wheat, post-emergence greenhouse test, visual damage assessment; assay type: in vivo; conditions: no safener, 4-leaf stage, assessment after 4 weeks
Experimental: as §1, §2

corn (Zea mays) [3] = experiment: Safener action on corn, post-emergence test, visual damage assessment; assay type: in vivo; conditions: no safener, 4-leaf stage, assessment after 4 weeks; for Damage [%] in corn varieties: Felix: variety Felix; for Damage [%] in corn varieties: Mutin: variety Mutin; for Damage [%] in corn varieties: Dea: variety Dea
Description: Corn plants, weed and weed grasses were raised to the 4- to 5-leaf stage in plastic pots outside or in the greenhouse and treated successively with herbicides and compounds of the formula I according to the invention using the post-emergence method. […] The assessment was made in percent compared with untreated controls.

corn (Zea mays) [4] = experiment: as above; assay type: in vivo; conditions: herbicide 75 g of a.i./ha, no safener; 3-leaf stage, assessment after 3 weeks
[5] = test system: Oryza sativa (transplanted); experiment: Safener action on transplanted rice, application by watering, visual damage assessment; assay type: in vivo; conditions: herbicide 450 g of a.i./ha, no safener, 3 days after transplanting, assessed 4 weeks after application
Experimental: Rice was sown in sandy soil in pots in a greenhouse and raised to a growth height of 24-25 cm. The rice was then transplanted into a water-covered soil and, 3 days after transplanting, treated with a herbicide or a herbicide/safener combination by watering. 4 weeks after application, plant damage was assessed visually compared with untreated controls (results see Table 9).

CCOC(=O)[C@@H](C)Oc1ccc(Oc2nc3ccc(Cl)cc3o2)cc1 [H1, fenoxaprop-P-ethyl]
Damage [%] ORSA (Oryza sativa (rice)): 80%
Damage [%] HV (Hordeum vulgare (barley); herbicide 100 g of a.i./ha, 4-leaf stage, assessment after 4 weeks): 80%
Damage [%] HV (Hordeum vulgare (barley); herbicide 200 g of a.i./ha, 3-leaf stage, assessment after 2-3 weeks): 85%
Damage [%] HV (Hordeum vulgare (barley); herbicide 200 g of a.i./ha, 4-leaf stage, assessment after 4 weeks): 90%
Damage [%] HV (Hordeum vulgare (barley); herbicide 400 g of a.i./ha, 4-leaf stage, assessment after 4 weeks): 98%
Damage [%] TD ([1]; herbicide 100 g of a.i./ha): 95%
Damage [%] TD ([1]; herbicide 200 g of a.i./ha): 95%
Damage [%] TD ([1]; herbicide 400 g of a.i./ha): 98%
Damage [%] TA ([2]; herbicide 100 g of a.i./ha): 10%
Damage [%] TA ([2]; herbicide 200 g of a.i./ha): 30%
Damage [%] TA ([2]; herbicide 400 g of a.i./ha): 40%

COC(=O)C(C)Oc1ccc(Oc2ccc(Cl)cc2Cl)cc1 (stereo not shown) [H2, diclofop-methyl]
Damage [%] HV (Hordeum vulgare (barley); herbicide 900 g of a.i./ha, 4-leaf stage, assessment after 4 weeks): 10%
Damage [%] HV (Hordeum vulgare (barley); herbicide 1800 g of a.i./ha, 4-leaf stage, assessment after 4 weeks): 40%

COC(=O)c1ccc(I)cc1S(=O)(=O)NC(=O)Nc1nc(C)nc(OC)n1.[Na] [H3, methyl 4-iodo-2-[3-(4-methoxy-6-methyl-1,3,5-triazin-2-yl)ureidosulfonyl]benzoate, sodium salt]
Damage [%] TA ([2]; herbicide 12 g of a.i./ha): 15%
Damage [%] TA ([2]; herbicide 25 g of a.i./ha): 80%
Damage [%] TA ([2]; herbicide 50 g of a.i./ha): 70%

COc1cc(OC)nc(Oc2cccnc2C(=O)OCc2ccccc2)n1 [H4, benzyl 3-(4,6-dimethoxypyrimidin-2-yloxy)pyridine-2-carboxylate]
Damage to corn [%] Alois variety (corn (Zea mays) [3]; herbicide 38 g of a.i./ha): 20%
Damage to corn [%] Felix variety (corn (Zea mays) [3]; herbicide 38 g of a.i./ha): 0%
Damage to corn [%] Alois variety (corn (Zea mays) [3]; herbicide 75 g of a.i./ha): 40%
Damage to corn [%] Felix variety (corn (Zea mays) [3]; herbicide 75 g of a.i./ha): 30%
Damage to corn [%] Alois variety (corn (Zea mays) [3]; herbicide 150 g of a.i./ha): 55%
Damage to corn [%] Felix variety (corn (Zea mays) [3]; herbicide 150 g of a.i./ha): 50%
Damage to corn [%] Alois variety (corn (Zea mays) [3]; herbicide 300 g of a.i./ha): 60%
Damage to corn [%] Felix variety (corn (Zea mays) [3]; herbicide 300 g of a.i./ha): 60%

COC(=O)c1sccc1NC(=O)Nc1nc(C)nc(OC)n1 [H7, 1-(2-methoxycarbonylthiophen-3-yl)-3-(4-methoxy-6-methyl-1,3,5-triazin-2-yl)urea]
Damage [%] in corn varieties: Felix (corn (Zea mays) [3]; herbicide 8 g a.i./ha): 0%
Damage [%] in corn varieties: Felix (corn (Zea mays) [3]; herbicide 15 g a.i./ha): 15%
Damage [%] in corn varieties: Felix (corn (Zea mays) [3]; herbicide 30 g a.i./ha): 40%
Damage [%] in corn varieties: Felix (corn (Zea mays) [3]; herbicide 60 g a.i./ha): 75%
Damage [%] in corn varieties: Mutin (corn (Zea mays) [3]; herbicide 8 g a.i./ha): 5%
Damage [%] in corn varieties: Mutin (corn (Zea mays) [3]; herbicide 15 g a.i./ha): 10%
Damage [%] in corn varieties: Mutin (corn (Zea mays) [3]; herbicide 30 g a.i./ha): 30%
Damage [%] in corn varieties: Mutin (corn (Zea mays) [3]; herbicide 60 g a.i./ha): 70%

COc1cc(OC)nc(NC(=O)NS(=O)(=O)c2ncccc2N(C)S(C)(=O)=O)n1 [H8, 3-(4,6-dimethoxypyrimidin-2-yl)-1-[3(-N-methyl-N-methylsulfonylamino)-2-pyridylsulfonyl]urea]
Damage [%] in corn varieties: Dea (corn (Zea mays) [3]; herbicide 25 g a.i./ha): 0%
Damage [%] in corn varieties: Dea (corn (Zea mays) [3]; herbicide 50 g a.i./ha): 0%
Damage [%] in corn varieties: Dea (corn (Zea mays) [3]; herbicide 100 g a.i./ha): 10%
Damage [%] in corn varieties: Dea (corn (Zea mays) [3]; herbicide 200 g a.i./ha): 35%
Damage [%] in corn varieties: Felix (corn (Zea mays) [3]; herbicide 25 g a.i./ha): 25%
Damage [%] in corn varieties: Felix (corn (Zea mays) [3]; herbicide 50 g a.i./ha): 55%
Damage [%] in corn varieties: Felix (corn (Zea mays) [3]; herbicide 100 g a.i./ha): 65%
Damage [%] in corn varieties: Felix (corn (Zea mays) [3]; herbicide 200 g a.i./ha): 70%
Damage [%] in corn varieties: Mutin (corn (Zea mays) [3]; herbicide 25 g a.i./ha): 15%
Damage [%] in corn varieties: Mutin (corn (Zea mays) [3]; herbicide 50 g a.i./ha): 30%
Damage [%] in corn varieties: Mutin (corn (Zea mays) [3]; herbicide 100 g a.i./ha): 60%
Damage [%] in corn varieties: Mutin (corn (Zea mays) [3]; herbicide 200 g a.i./ha): 65%
Damage in corn [%] Felix variety (corn (Zea mays) [4]): 75%

COP(=S)(OC)SCC(=O)N(c1ccc(Cl)cc1)C(C)C [H9, anilofos]
Damage [%] ORSA-T [5]: 50%
